From patent US20250177412A1, “SMALL-MOLECULE INHIBITORS TARGETING THE BOB1/OCT1 INTERFACE” (NANTES UNIVERSITE, priority 2022, published 2025)

Assays:
[1] = system: memory B cells; test: High-throughput multiplex qPCR of B-cell-related genes; type: cell-based, human; details: 10 μM
Procedure: FIGS. 4A-AA are a combination of heatmap plot and graphs showing expression of B-cell-related genes at day 4 and day 7 of the human B cell differentiation in vitro model in the presence of 0 μM and 10 μM of the compound 005 (n=6). Experimental conditions are as described in the FIG. 3. […] FIG. 4B-AA show expression of the selected genes at day 4 related to proliferation (FIG. 4B-D), plasma-cell differentiation (FIG. 4E-I), immunoglobulin isotype switching (FIG. 4J-M), B-cell identity (FIG. 4N-S), and B-cell activation (FIG. 4T-AA).

[2] = molecular target: T1, ternary BOB1/POU1/PORE complex (Homo sapiens, UniProt P14859); test: Electrophoretic mobility shift assay (EMSA); type: binding; details: 100 μM
T1 construct: made in house; host or cells: E. coli BL21
T1 sequence (P14859 280-438): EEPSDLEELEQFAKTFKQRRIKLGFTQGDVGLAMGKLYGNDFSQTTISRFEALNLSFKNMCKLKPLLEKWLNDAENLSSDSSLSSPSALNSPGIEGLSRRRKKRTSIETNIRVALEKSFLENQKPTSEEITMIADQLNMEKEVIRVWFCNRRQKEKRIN

[3] = system: memory B cells; test: Immunoglobulin isotype production (LEGENDplex 8-plex); type: cell-based, human; details: day 7
Procedure: B cells were stimulated to differentiate into plasmablasts using a two-phase cell culture protocol as previously described. Briefly, B cells were seeded at 4×10^5 cells/mL in 24-well plates and activated during 4 days with 50 ng/mL recombinant human soluble CD40L (R&D Systems), 2.5 μg/mL CpG oligodeoxynucleotide (ODN) 2006 (Amidogen or Cayla Invivogen), 2 μg/mL F(ab′)2 fragment goat anti-human IgA+IgG+IgM (H+L) polyclonal Abs (anti-BCR) (Jackson ImmunoResearch Laboratories), and 50 U/mL human IL-2 (SARL Pharmaxie or Novartis). […] At days 0, 4 and 7, B cells were stained with viability marker LIVE/DEAD Fixable Aqua Dead Cell Stain (Thermofisher) to identify dead cells, followed by extracellular staining with anti-human mAbs: anti-CD20 FITC, anti-IgD BUV395, anti-CD27 BUV737, anti-CD38 BV605 (all from BD Biosciences) and analyzed by flow cytometry (FACSCelesta™, BD Biosciences). In some experiments, B cell apoptosis was evaluated by intracellular active caspase-3 staining (Caspase-3-PE, BD Biosciences).
Immunoglobulin isotypes were quantified using the Human Immunoglobulin Isotyping LEGENDplex 8-plex kit (BioLegend) according to the manufacturer's instructions. Data were collected on the BD FACSCanto™ II flow cytometer and analyzed using LEGENDplex Data Analysis Software.

Cc1ccc(NC(=O)C2CN(c3nc(NCCCc4ccc(F)cc4)nc(NCCC(=O)O)n3)c3ccccc3O2)cc1Cl (centres unmarked) [compound 005, 3-((4-(2-((3-chloro-4-methylphenyl)carbamoyl)-2,3-dihydro-4H-benzo[b][1,4]oxazin-4-yl)-6-((3-(4-fluorophenyl)propyl)amino)-1,3,5-triazin-2-yl)amino)propanoic acid]
expression of genes related to the B cell identity and activation [1]: upregulated
expression of plasma cell related genes [1]: suppressed
effect on ternary BOB1/POU1/PORE complex [2]: has not affected
IgG1, IgG2, IgG3 and IgG4 production ([3]; 10 μM): significant decrease
titers of all immunoglobulin subclasses ([3]; 15 and 20 μM): strongly suppressed
